Values quoted from earlier work in patent US11661349B2, “Method for making coffee husk reducing agent” (Imam Abdulrahman Bin Faisal University, priority 2019, dated 2023).

How the values were obtained:
Aspergillus flavus = settings: A. flavus; from Elefanti et al. 2013
Aspergillus niger = settings: A. niger; from Elefanti et al. 2013

OC(Cn1cncn1)(Cn1cncn1)c1ccc(F)cc1F [Flucanazole]
0.1 mg/mL: MFC (Minimum Fungicidal Concentration) (Aspergillus flavus) | MIC (Aspergillus flavus) | MFC (Minimum Fungicidal Concentration) (Aspergillus niger) | MIC (Aspergillus niger)
